Source: patent publication US20030113321A1, “Novel G-protein-coupled receptor protein and its DNA” (priority 2000, published 2003)

Tests used:
Assay type in all cases: cell-based
TGR4 [1] = target: T1, TGR4 (Homo sapiens, UniProt Q9H1C0); assay: Reporter gene (CRE-luciferase) expression level in cells with transient TGR4 expression; set-up: expressed in transfected cells; host or cells: CHO-mock cells (CHO(dhfr-) transformed with pAKKO-111H), transiently transfected with pAK-TGR4, pAK-Gi and pCRE-Luc; conditions: TGR4 gene-transfected CHO-mock cells (co-transfected with pAK-Gi and pCRE-Luc), 4 hours, FIG. 4
Source text: TGR4 cDNA or inhibitory G protein α subunit Gi cDNA was inserted into the animal cell expression vector plasmid pAKKO-111H (the plasmid vector identical to the pAKKO-1.11H described in Biochim. Biophys. Acta, Hinuma, S., et al., 1219, 251-259, 1994) by publicly known methods. The expression vector plasmids pAK-TGR4 and pAK-Gi thus produced and pAKKO-111H without any particular gene inserted were transfected to CHO cells by the following procedures.
First, using these vectors, Escherichia coli JM109 was transformed; after the colony obtained was isolated and incubated, a plasmid was prepared using QIAGEN Plasmid Maxi Kit (Qiagen, Inc.). […]
Geranylgeranyl diphosphate (GGPP, Sigma, Inc.), farnesyl diphosphate (FPP, Sigma, Inc.) and lysophosphatidic acid (LPA, Sigma, Inc.) were diluted in the assay buffer, respectively, and each dilution was added to the transfected CHO-mock cells described above in a concentration of 1, 0.1 and 0.01 μM, followed by incubation at 37° C. for 4 hours under 5% CO2. The culture supernatant was discarded and 50 μl of a substrate for assaying an luciferase activity or PicaGene LT 2.0 (Toyo Ink Mfg. Co., Ltd.) was added, and the luminescence amount of luciferase was assayed by using a plate reader (ARVO sx multi-label counter, Walac, Inc.).

TGR4 [2] = target: T1, TGR4; assay: Intracellular cAMP production amount in TGR4-expressed CHO cells; set-up: expressed in transfected cells; host or cells: CHO cells stably expressing TGR4 (CHO-TGR4); conditions: 2 μM; CHO-TGR4 compared with CHO-mock cells; 30 minutes at 37° C.; n is 3; FIGS. 7 and 8
Method: CHO-mock cells with neither CHO-TGR4 nor receptor gene introduced, which were prepared in EXAMPLE 4, were plated in a 96-well plate (Beckton-Dickinson, Inc.) in 25,000 cells/well, followed by incubation overnight at 37° C. under 5% CO2. This culture solution was used for assay. A sample buffer used was HBSS supplemented with 0.1% BSA and 0.2 mM I BMX (Sigma, Inc.). The cells were washed twice with the sample buffer and pre-incubated at 37° C. for 30 minutes. The cells were further washed twice and the sample was added thereto followed by incubation at 37° C. for 30 minutes. The sample was added in 2 μM of farnesyl diphosphate or lysophosphatidic acid. After incubation in the presence of the sample, the amount of intracellular cAMP production was assayed by using cAMP Screen System (ABI).

TGR4 [3] = target: T1, TGR4; assay: Intracellular calcium ion mobilization activity in TGR4-expressed CHO cells (FLIPR); set-up: expressed in transfected cells; host or cells: CHO cells stably expressing TGR4 (CHO-TGR4); conditions: 2.5 μM; CHO-TGR4 compared with CHO-mock cells; about 3 minutes after addition; FIGS. 5 and 6
Method: Using the plasmids for TGR4 expression prepared in EXAMPLE 3, CHO-TGR4 as CHO cells for stable TGR4 expression was prepared by a publicly known method. CHO-mock cells with neither CHO-TGR4 nor receptor gene introduced were plated in a 96-well black plate (Costar, Inc.) with the clear bottom in a concentration of 3000 cells/well, and cultured overnight at 37° C. under 5% CO2. The culture solution was used for assay. A wash buffer was prepared by adding 20 mM HEPES, pH 7.4 and 2.5 mM probenecid (Sigma, Inc.) to Hank's balanced salt solution (HBSS, Gibco BRL, Inc.). As a sample buffer, the wash buffer supplemented with 0.1% bovine serum albumin (BSA, Sigma, Inc.) was used. As a dye loading solution there was used a mixture prepared by adding 1% FBS, 4 μM Fluo 3-AM (Wako Pure Chemical Industry Co., Ltd.) and 0.04% Pluronic acid (Molecular Probes, Inc.) to the wash buffer. The medium of the cells was discarded and the dye loading solution was added. After incubation at 37° C. for an hour, the cells were washed with the wash buffer using a plate washer. The cells were set on Fluorometric Imaging Plate Reader (FLIPR, Molecular Devices, Inc.) and a change of the intracellular calcium ion level was measured for about 3 minutes after addition of the sample. As the sample, FPP or LPA was added in a concentration of 2.5 μM.

T1 sequence (Q9H1C0 whole entry): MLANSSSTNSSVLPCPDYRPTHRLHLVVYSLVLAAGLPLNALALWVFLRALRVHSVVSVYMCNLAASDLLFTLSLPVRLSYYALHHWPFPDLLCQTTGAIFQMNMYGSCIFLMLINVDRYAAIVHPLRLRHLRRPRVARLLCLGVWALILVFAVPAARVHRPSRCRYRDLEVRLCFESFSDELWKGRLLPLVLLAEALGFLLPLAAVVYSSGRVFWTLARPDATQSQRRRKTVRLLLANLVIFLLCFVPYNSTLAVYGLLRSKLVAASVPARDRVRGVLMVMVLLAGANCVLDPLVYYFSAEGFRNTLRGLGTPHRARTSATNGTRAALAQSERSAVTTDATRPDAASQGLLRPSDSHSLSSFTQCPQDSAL

Row | Compound | luciferase activity (TGR4 [1]; 1 and 0.1 μM) | amount of intracellular cAMP production (TGR4 [2]) | luciferase activity (TGR4 [1]; 1 μM) | intracellular calcium ion mobilization activity (TGR4 [3])
1 | CC(C)=CCC/C(C)=C/CC/C(C)=C/CC/C(C)=C/COP(=O)(O)OP(=O)(O)O [GGPP, Geranylgeranyl diphosphate] | increased luciferase activity | – | – | –
2 | lysophosphatidic acid [LPA] | – | increased specifically to CHO-TRG4 | increased luciferase activity | increased specifically to CHO-TRG4
